Laboratory results as given in a melting point compilation (Tetko et al.; mined from patent text by program, amines drawn as free bases though some values may be those of a salt).

Compared with `Fc1cc(-c2ccc3nnn(Cc4ccc5ncccc5c4)c3n2)ccc1OC1CCOCC1`, `Cn1ncc(/C=C/C(=O)Nc2ccc(Cc3nc4ccccc4[nH]3)cc2)c1-c1ccc(F)cc1` is higher in melting point: 165 to 167 °C for the first, > 300 °C for the second.

First: CN1C(=O)C(=NC(Cl)=C(Cl)Cl)N(c2ccc(Cl)cc2)C1=O
Second: O=c1[nH]c2cc(Cl)ccc2c(=O)n1S(=O)(=O)c1ccc(Cl)cc1
The melting point of the first is lower: 108 to 110 °C for the first, 286 to 287 °C for the second.

First: O=S(=O)(NCc1cccnc1)c1ccc(Br)s1
Second: CC(C)(C)c1ccc(C(N)=O)c(NC(=O)Nc2cccnc2)c1
The melting point of the first is lower: 125 °C for the first, 188 to 189 °C for the second.

First: CC(=O)OC1CCC2(C)C(=CCC3C2CCC2(C)C(C(C)CCC(OC(C)=O)C(C)(C)OC(C)=O)CCC32)C1 (stereo unspecified)
Second: CC(=O)C1C(C(=O)c2ccc(Cl)cc2)CC2C3CCC4=CC(=O)CCC4(C)C3(F)C(O)CC21C (stereo unspecified)
The melting point of the first is lower: 121 to 122 °C for the first, 280 to 281 °C for the second.

`COCCc1nc2c(N)nc3cc(-c4ccccc4)ccc3c2n1CCCCNS(C)(=O)=O` and `CCCCc1cc(Cn2cnc3c(N)nc4ccccc4c32)no1` cannot be ordered by melting point: 201 to 202 °C for the first, 201 to 203 °C for the second.

First: Cc1cccc(-n2nc3c(c2OS(=O)(=O)C(F)(F)F)CCC3)n1
Second: CC(C)c1nn(-c2ccc(C(F)(F)F)cn2)cc1CCCOc1cccc(OC(C)(C)C(=O)O)c1
The melting point of the first is higher: 146 to 148 °C for the first, 101 to 102 °C for the second.

First: COC(C)(C)CNCc1cnc2c(C)c(NC(=O)c3ccc(OCC4CCOC4)cc3)ccc2c1 (stereo unspecified)
Second: COC(=O)c1ccc(OCc2cccc(OCc3ccc4ccccc4n3)c2)c(OC)c1
The melting point of the first is higher: 137 °C for the first, 100 to 101 °C for the second.

First: OC1c2cc(OCc3ccc4ccccc4n3)ccc2OCC1Cc1c[nH]c2ccccc12 (stereo unspecified)
Second: O=C1OCc2c(c3cc(-c4ccc(Cl)cc4)ccc3n2Cc2ccccc2)C1=O
The melting point of the first is lower: 60 °C for the first, 263 to 264 °C for the second.

First: O=C(Nc1cccc(C(F)(F)F)c1)Nc1ccc(Oc2ncnc3ccn(CCOCCO)c23)cc1Cl
Second: Cc1cnc(Oc2cccc(C(F)(F)F)c2)c(C(=O)Nc2ccc(F)cc2F)c1
The melting point of the first is higher: 170 to 174 °C for the first, 133 to 135 °C for the second.

First: Cc1cccc2c(=O)[nH]c(N3CCN(CCCCN4CCN(C)CC4)CC3)cc12
Second: N=C(N)c1ccc(N2CC(CN3CCN(CCC(=O)O)CC3)OC2=O)cc1 (stereo unspecified)
The melting point of the first is lower: 202 to 203 °C for the first, 269 °C for the second.

First: CC(=O)OC1OC(C)C(OCc2ccccc2)C(OCc2ccccc2)C1OCc1ccccc1 (stereo unspecified)
Second: CCOC(=O)CC(CCCNC(=O)c1csc(NC(=O)NCc2ccccc2)n1)c1ccccc1 (racemic)
The melting point of the first is lower: 86 to 87.5 °C for the first, 93 °C for the second.

First: CCOC=Nc1c(S(C)=O)c(C#N)nn1-c1c(Cl)cc(C(F)(F)F)cc1Cl (stereo unspecified)
Second: CC1(C(=O)NNc2c(Cl)cc(C(F)(F)F)cc2Cl)CC1(Cl)Cl (stereo unspecified)
The melting point of the first is lower: 93 to 95 °C for the first, 174 to 175 °C for the second.

First: O=S(=O)(c1ccc(Cl)cc1)N1CCCC1c1ccccc1F (racemic)
Second: Cc1ccc(-n2cccc2-c2ccc(S(C)(=O)=O)cc2)cc1
The melting point of the first is higher: 134 °C for the first, 112 to 114 °C for the second.

First: O=C(NC1CCN(CC23CC(c4ccccc42)c2ccccc23)CC1)NC1CCCCO1 (stereo unspecified)
Second: O=C(O)CCCNC(=O)c1ccccc1NC(=O)c1ccccc1[N+](=O)[O-]
The melting point of the first is higher: 211 to 212 °C for the first, 142 to 144 °C for the second.

First: O=C(N1CCNCC1)N1CCC(c2ccncc2)CC1
Second: Cc1ccnc2c1N(O)C(=O)c1cccnc1N2C1CC1
The melting point of the first is lower: 116 to 117 °C for the first, 239 to 241 °C for the second.

First: CCOC(=O)c1cn(C(C)(C)C)c2nc(SCC)c(F)cc2c1=O
Second: CCOC(=O)c1cn2c(n1)CN(C(C)=O)CC2
The melting point of the first is higher: 159 to 160 °C for the first, 97 °C for the second.

Compared with `COc1ccc2c(N)c(C(=O)Nc3ccc(Cl)cc3Cl)oc2c1`, `COc1ccc(Cl)cc1C(=O)NCCc1ccc(Br)c(S(=O)(=O)N=CN(C)C)c1` is lower in melting point: 187 to 188 °C for the first, 150 to 152 °C for the second.

Compared with `CCCCCCCCCCCCCCCCCCOc1ccc(C(=O)C(=O)O)cc1`, `CCCCCCCCCCCCCCCCCCCCCCCCCCCCOC(=O)c1cccnc1` is lower in melting point: 78 to 80 °C for the first, 65 to 70 °C for the second.

First: COC(=O)c1nc(-c2ccc(F)c(C)c2F)cc(NC(C)=O)c1Cl
Second: COC(=O)CC(=O)c1cc(F)c(Cl)cc1Cl
The melting point of the first is higher: 152 to 153 °C for the first, 77 to 79 °C for the second.

First: NC(=O)c1c(C(=O)O)cnn1-c1cccc(Cl)c1
Second: NC(=O)c1ccccc1NC(=O)c1ccc2c(c1)CCO2
The melting point of the first is lower: 223 to 225 °C for the first, 230 to 235 °C for the second.

First: CC(C)NC(=O)CC(CC1(C(=O)N[C@H]2CCc3ccccc3N(CC(=O)O)C2=O)CCCC1)C(=O)O (stereo partly specified)
Second: C=C(C1=C(CCC(=O)O)C(O)CC1O)c1ccccc1 (stereo unspecified)
The melting point of the first is higher: 145 °C for the first, 124 to 126 °C for the second.

First: Cc1ccc([N+](=O)[O-])c(CC2NC(=O)NC2=O)c1C (stereo unspecified)
Second: CC1C(=O)c2cc([N+](=O)[O-])ccc2OC1(C)C (stereo unspecified)
The melting point of the first is higher: 172 to 174 °C for the first, 78 °C for the second.

Compared with `CN1C(=O)COc2c1cc(Cl)c([N+](=O)[O-])c2C(=O)O`, `O=C1CC2(C(=O)N1)C(=O)N1CCCc3cc(Cl)cc2c31` (stereo unspecified) is higher in melting point: 257 °C for the first, 268 to 269 °C for the second.

`CC(=O)N(C)c1c(I)c(NC(=O)CCCC(=O)O)c(I)c(C(=O)O)c1I` and `O=C(CCCCCOc1ccc2c(c1)[nH]c1ccccc12)NO` cannot be ordered by melting point: 189 to 196 °C for the first, 192 °C for the second.

Compared with `N#Cc1cnc2cc(F)c(O)cc2c1Cl`, `N#Cc1ccc(COCCn2cnc3c(N)nc4ccccc4c32)cc1` is lower in melting point: > 250 °C for the first, 238 to 239 °C for the second.

First: CCNC(=O)c1c(Cl)cccc1[Si](C)(C)CC
Second: CCCCC1=C(C(=O)OCC)C(c2ccccc2Cl)c2c[nH]nc2N1 (stereo unspecified)
The melting point of the first is lower: 94 to 95 °C for the first, 209 °C for the second.

Compared with `O=C1C=C(NC(=O)C(=O)c2cn(Cc3c(F)cccc3F)c3ccccc23)CO1`, `O=c1n(-c2cccc3ccccc23)c(=O)n(CCO)n1CCO` is lower in melting point: 252 to 256 °C for the first, 211 to 212 °C for the second.

First: CC(=O)NC(Cc1cc(F)c(F)cc1F)Cc1nnc2n1ccc1ncnn12 (stereo unspecified)
Second: CCOC(=O)c1ncn2c1C(C)N=C(c1ccccc1)c1cc(Br)ccc1-2 (stereo unspecified)
The melting point of the first is higher: 233 to 235 °C for the first, 164 to 165 °C for the second.

Compared with `Nc1ncc(CN2CCN(c3ccccc3)CC2)c(N)n1`, `CN1CCN(c2n[nH]c3cc(F)ccc23)CC1` is lower in melting point: 263 to 265 °C for the first, 164 to 166 °C for the second.

First: CC1(C)CC2(CC(C)(C)c3ccc(O)cc32)c2cc(O)ccc21
Second: CNS(=O)(=O)c1ccc(-c2cnc3[nH]cc(C(=O)C(C)(C)C)c3n2)cc1
The melting point of the first is lower: 215 to 217 °C for the first, 278 to 280 °C for the second.

First: Cn1c([N+](=O)[O-])cnc1COc1ccc([N+](=O)[O-])cc1
Second: COc1ccc(N2CC(=O)N(C)C(=O)N2)cc1
The melting point of the first is lower: 150 °C for the first, 179 to 181 °C for the second.

Compared with `CC(C)CN(CC(C)C)S(=O)(=O)N[C@@H](Cc1ccc(Oc2nccc3cnccc23)cc1)C(=O)O`, `O=C(CCCOc1ccc(-c2ccc(Cl)cc2)cc1)NO` is higher in melting point: 88 °C for the first, 168 to 170 °C for the second.

First: CN(C)C(=O)[C@H]1C[C@H]1C(=O)N(C)C
Second: Cc1cn(S(C)(=O)=O)c2c1C(=O)CC(c1cccs1)C2 (stereo unspecified)
The melting point of the first is lower: 103 to 104 °C for the first, 135 to 136 °C for the second.

Compared with `CN1CCC(O)(CNC=O)CC1`, `COc1c(OCCn2c([N+](=O)[O-])cnc2C)cnc(CNc2nc(C)nc(C)c2Cl)c1C` is higher in melting point: 116 to 122 °C for the first, 182 to 184 °C for the second.

Compared with `c1ccc2c(c1)ccc1cnsc12`, `Cc1ccc(N2C(=O)c3nccnc3C2=O)nc1` is higher in melting point: 52 °C for the first, 240 °C for the second.

`Nc1cc(OCCO)nc(N)n1` gave a melting point of 190 °C.
